According to publication PMC6731241, “L-Type Amino Acid Transporter 1 (LAT1/Lat1)-Utilizing Prodrugs Can Improve the Delivery of Drugs into Neurons, Astrocytes and Microglia” (Scientific Reports, 2019):
Like-named read-outs stand apart in the source and are kept apart here.

How the values were obtained:
[1] = cited from earlier work
[2] = test system: primary cortical neurons and immortalized microglia; test: Cellular uptake of compounds, neurons and microglia (joint range); assay type: cell-based, mouse; details: for Uptake of prodrug relative to parent drug 2: primary cortical neurons and immortalized microglia
Protocol: (§1) Pre-incubation was done with 500 μL of pre-warmed HBSS at 37 °C for 10 min before adding substrates (250 μL in HBSS) for the uptake experiments. The ability of brain cell to carry a known LAT1/Lat1 substrate, the cells were incubated with [^14C]-L-leucine at 37 °C for 2.5 min in uptake buffer (HBSS, 250 μL) containing 0.76–75 μM (0.25 mCi/ml) of [^14C]-L-leucine (PerkinElmer, Waltham, MA, USA).
(§2) The protein concentrations on each plate were determined as a mean of three samples by Bio-Rad Protein Assay, based on the Bradford dye-binding method, using bovine serum albumin (BSA) as a standard protein and measuring the absorbance (595 nm) by multiplate reader (EnVision, Perkin Elmer, Inc., Waltham, MA, USA).

[3] = set-up: method as in PMID 28662899, PMID 27266990; details: unspecific brain tissue binding, fraction unbound (fu,brain), equilibrium dialysis; cited from earlier work
[4] = Bioconversion in immortalized BV2 microglia homogenate; assay type: in vitro ADME, mouse; details: for half-life at 400 µM: mouse, pH 7.4, 37 °C
Protocol: (§3) The rates of bioconversion of all studied prodrugs in immortalized BV2 microglia and primary astrocytes homogenates were determined at 37 °C. The cell homogenates were prepared by homogenizing 10 × 10^6 cells/ml in HBSS (pH 7.4) with SoniPerp 150 Plus disintegrator (MSE Ltd., London, UK) for 2 s × 3. The incubation mixtures were prepared by mixing cell homogenate (final protein concentration 1.0 mg/mL) with HBSS buffer and 10 mM prodrug stock solution in DMSO (the final concentration of prodrugs was 400 µM and the DMSO concentration […]). The mixture was then incubated for 5 h and the samples (50 µL) were withdrawn at appropriate intervals. The proteins in the samples were precipitated with ice-cold acetonitrile (150 µL) and the samples were centrifuged for 5 min at 12 000 × g at room temperature. The supernatants were collected and analyzed by the LC-MS methods as reported earlier[19],[24],[26]. In blank reactions (chemical stability), the cell homogenate was replaced with same volume of buffer. The pseudo-first-order half-lives (t½) for the rates of bioconversion of the prodrugs were calculated from the slope of the linear portion of the plotted logarithm of remaining prodrug concentration versus time.

[5] = Bioconversion in primary astrocytes homogenate; assay type: in vitro ADME, mouse; details: for half-life at 400 µM: mouse, pH 7.4, primary astrocytes homogenate, 37 °C
Protocol: as §3

[6] = cited from earlier work; remark: listed apart in the source
[7] = test system: immortalized microglia (BV2); test: Cell viability of immortalized microglia (resazurin); assay type: cell-based; details: 100 µM, 24 h
Protocol: 2. Effects of LAT1-Utilizing Prodrugs and Their Parent Drugs on the Cell Viability of Immortalized
Immortalized microglia (BV2) were seeded at the density of 2 × 10^4 cells/well onto collagen-coated 96-well plates. The cells were used for the proliferation experiments one day after seeding. A concentration of 100 µM of studied compounds were added into the growth medium and incubated for 24 h, after which the cell viability was determined by resazurin cell proliferation kit (Sigma, St.
Louis, MO, USA). The samples were measured fluorometrically by monitoring the increase in fluorescence at a wavelength of 590 nm using an excitation wavelength of 560 nm (EnVision, Perkin Elmer, Inc., Waltham, MA, USA), which is directly proportional to aerobic respiration and cellular metabolism of cells. The cell death was confirmed in the decrease of cell amount by visualizing the […]
Figure S2. The cell viability of immortalized microglia (BV2) after 24 h incubation of 100 µM LAT1-utilizing prodrugs (PD1-PD6) and their parent drugs (D1-D3) presented as percentages (%) compared to the untreated cells (ctrl) (mean ± SD, n=3-6). An asterisk denotes a statistically significant difference from the respective control (** P < 0.01, * P < 0.05 one-way ANOVA, followed by […]

Lat1 [8] = biological target: T1, Lat1 (Mus musculus, UniProt Q9Z127); test: [14C]-L-Leu uptake kinetics in primary cortical neurons; details: 0.76–75 µM, 2.5 min
T1 sequence (Q9Z127 whole entry): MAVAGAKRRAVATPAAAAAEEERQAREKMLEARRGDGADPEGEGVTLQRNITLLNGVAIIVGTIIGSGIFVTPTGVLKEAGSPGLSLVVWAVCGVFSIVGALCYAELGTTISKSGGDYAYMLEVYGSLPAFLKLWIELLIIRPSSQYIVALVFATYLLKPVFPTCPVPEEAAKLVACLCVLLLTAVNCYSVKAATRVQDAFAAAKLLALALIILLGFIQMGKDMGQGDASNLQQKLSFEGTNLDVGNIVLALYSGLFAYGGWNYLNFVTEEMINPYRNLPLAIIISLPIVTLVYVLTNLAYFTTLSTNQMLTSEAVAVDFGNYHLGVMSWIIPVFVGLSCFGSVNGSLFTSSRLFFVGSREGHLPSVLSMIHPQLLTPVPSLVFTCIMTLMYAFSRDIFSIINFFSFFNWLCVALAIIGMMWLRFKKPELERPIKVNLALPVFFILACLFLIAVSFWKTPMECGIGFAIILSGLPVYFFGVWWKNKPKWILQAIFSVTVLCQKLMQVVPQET
T1 sequence (P10852 whole entry partner): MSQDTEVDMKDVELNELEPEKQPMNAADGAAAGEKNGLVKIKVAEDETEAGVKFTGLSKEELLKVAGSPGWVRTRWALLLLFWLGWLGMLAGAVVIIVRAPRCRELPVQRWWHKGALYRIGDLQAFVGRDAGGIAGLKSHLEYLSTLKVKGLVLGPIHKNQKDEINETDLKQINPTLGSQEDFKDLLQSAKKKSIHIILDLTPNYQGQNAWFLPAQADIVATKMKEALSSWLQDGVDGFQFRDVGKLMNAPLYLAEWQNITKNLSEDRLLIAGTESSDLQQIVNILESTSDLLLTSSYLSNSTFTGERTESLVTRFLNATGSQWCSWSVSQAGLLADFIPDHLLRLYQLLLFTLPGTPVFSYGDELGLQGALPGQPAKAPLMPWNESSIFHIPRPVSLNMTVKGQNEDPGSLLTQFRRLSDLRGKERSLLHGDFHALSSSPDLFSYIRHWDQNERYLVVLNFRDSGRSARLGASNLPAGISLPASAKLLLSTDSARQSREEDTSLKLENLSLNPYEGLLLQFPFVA

Lat1 [9] = biological target: T1, Lat1; test: [14C]-L-Leu uptake kinetics, primary cortical neurons and immortalized microglia (joint range); details: range over primary cortical neurons and immortalized microglia
LAT1/Lat1 = test system: LAT1/Lat1; set-up: method as in PMID 11557028, PMID 15567481, PMID 19890975; details: human LAT1 transfected cells or cancer cells expressing hLAT1 or rodent Lat1; read-out: Affinity (Km), previously reported values; cited from earlier work
Lat1 [10] = biological target: T1, Lat1; test: [14C]-L-Leu uptake kinetics in primary astrocytes; details: 0.76–75 µM, 2.5 min
Lat1 [11] = biological target: T1, Lat1; test: [14C]-L-Leu uptake kinetics in immortalized microglia (BV2); details: 0.76–75 µM, 2.5 min
Lat1 [12] = biological target: T1, Lat1; test: Competitive prodrug uptake with LAT1/Lat1-inhibitor (KMH-233), all cell types; assay type: cell-based; set-up: neurons and microglia also express functional Lat1 on their cell surface; endogenous in cells; host or cells: mouse primary cortical neurons, mouse primary astrocytes, immortalized mouse microglia (BV2); details: 100 µM KMH-233, range over all cell types
Protocol: The competitive uptake in the presence of LAT1/Lat1-inhibitor (KMH-233) was carried out as described above with HBSS buffer solution containing 1–10 µM of the studied compounds. The cells were pre-incubated with 100 µM LAT1/Lat1-inhibitor for 10 min and the incubation mixture was removed before adding the studied prodrug and LAT1/Lat1-inhibitor on the cells. The competitive uptake (30 min) with the inhibitor was then carried out as the normal uptake described above. The amounts of studied compounds were analyzed by the LC-MS method and calculated from the spiked standard curve and normalized with the protein concentrations.

mouse primary neurons = test: Cellular uptake of compounds into primary neurons; assay type: cell-based; details: 25, 50 and 100 µM (Fig. 4c)
Protocol: as §1

[13] = test system: immortalized microglia (BV2); test: Cellular uptake of compounds into immortalized microglia (BV2); assay type: cell-based, mouse; details: 25, 50 and 100 µM (Fig. 4c)
Protocol: as §1

mouse primary astrocytes = test: Cellular uptake of compounds into primary astrocytes; assay type: cell-based
Protocol: as §1, §2

[14] = 400 µM, read-out: Half-life of bioconversion

N[C@H](Cc1cccc(C(=O)OCc2ccc(-c3ccc(-c4ccc5c(c4)COC5=O)s3)cc2)c1)C(=O)O [PD1]
Half-life in vivo ([1]; brain): 1.4 h | Half-life in vivo ([1]; liver): 1.25 h | Half-life in vivo ([1]; plasma): 1.57 h | Uptake of prodrug relative to its parent drug ([2]; neurons and microglia): 10–17 | Brain Protein Binding fu (%) [3]: 1.4% | half-life at 400 µM ([4]; tissue homogenate, immortalized microglia homogenate, 400 µM, read-out: Half-life of bioconversion): 3.96 ± 0.738 h | half-life at 400 µM [5, 14]: 5.81 ± 0.402 h | Half-life in brain S9 subcellular fraction ([6]; in vitro, listed as Prodrug 1): approximately 4.7 h | Half-life in brain S9 subcellular fraction ([6]; in vitro, listed as prodrug 1): approximately 5 h

COc1cc(/C=C/C(=O)Nc2cccc(C[C@H](N)C(=O)O)c2)ccc1O [PD5]
Brain Protein Binding fu (%) [3]: 7.0% | Stability in cell homogenate ([4]; microglia homogenate): stable | Stability in cell homogenate ([5]; astrocytes homogenate): stable | Effect on cell viability [7]: slightly increased the cell proliferation

CC(C)C[C@H](N)C(=O)O [[^14C]-L-Leu, L-leucine]
Km (Lat1 [8]): 146 ± 47.3 µM | Vmax (Lat1 [8]): 1.90 ± 0.44 nmol/min/mg protein | Km (Lat1 [9]): 85.8 to 146 µM | Vmax (Lat1 [9]): 0.84–1.90 nmol/min/mg of protein | Km (LAT1/Lat1): 9 to 52 µM | Km (Lat1 [10]): 65.9 ± 14.3 µM | Vmax (Lat1 [10]): 2.92 ± 0.36 nmol/min/mg protein | Vmax (Lat1 [11]): 0.84 ± 0.12 nmol/min/mg protein

COc1cc(/C=C/C(=O)NCc2cccc(C[C@@H](N)C(=O)O)c2)ccc1O [PD4]
Inhibition of prodrug uptake by LAT1/Lat1-inhibitor (Lat1 [12]; 10 µM prodrug): 83.24–85.23% | Brain Protein Binding fu (%) [3]: 13.0% | Stability in cell homogenate ([4]; microglia homogenate): stable | Stability in cell homogenate ([5]; astrocytes homogenate): stable | Effect on cell viability [7]: slightly increased the cell proliferation

COc1cc(/C=C/C(=O)O)ccc1O [D3, ferulic acid, reference compound]
Amount in cells (under the detection limit) ([2]; neurons and microglia): < 1.0 nM | Brain Protein Binding fu (%) [3]: 26.0% | Cell uptake (mouse primary neurons): below LLOQ | Cell uptake [13]: below LLOQ

CC(C(=O)Oc1cccc(C[C@H](N)C(=O)O)c1)c1cccc(C(=O)c2ccccc2)c1 (some centres unmarked) [PD3]
Uptake of prodrug relative to parent drug 2 [2]: 1–7 times | Uptake of prodrug relative to ketoprofen (mouse primary astrocytes): 10–80 times | Inhibition of prodrug uptake by LAT1/Lat1-inhibitor (Lat1 [12]; 1 µM prodrug): 47.41–58.32% | half-life at 400 µM ([4]; immortalized BV2 microglia homogenate, immortalized microglia homogenate, 400 µM, read-out: Half-life of bioconversion): 3.35 ± 0.224 h | half-life at 400 µM [5, 14]: 4.71 ± 0.263 h | Half-life in brain S9 subcellular fraction ([6]; approximate): ~1 h | t½ in mouse brain S9 subcellular fraction ([6]; conversion to ketoprofen): 0.866 ± 0.0387 h

O=C1OCc2cc(-c3ccc(-c4ccc(CO)cc4)s3)ccc21 [D1, reference compound]
Brain Protein Binding fu (%) [3]: 0.03%

CC(C(=O)Nc1cccc(C[C@H](N)C(=O)O)c1)c1cccc(C(=O)c2ccccc2)c1 (some centres unmarked) [PD2]
Half-life in vivo (release of ketoprofen) ([1]; brain): 0.45 h | Half-life in vivo (release of ketoprofen) ([1]; liver): 0.383 h | Half-life in vivo (release of ketoprofen) ([1]; plasma): 0.267 h | Uptake of prodrug relative to parent drug 2 [2]: 1–7 times | Uptake of prodrug relative to ketoprofen (mouse primary astrocytes): 10–80 times | Brain Protein Binding fu (%) [3]: 6.2% | Stability in cell homogenate ([4]; microglia homogenate): completely stable | Stability in cell homogenate ([5]; astrocytes homogenate): completely stable | Stability in brain S9 subcellular fraction ([6]; in vitro media lack co-factors): stable and do not release ketoprofen at all

COc1cc(/C=C/C(=O)Oc2cccc(C[C@H](N)C(=O)O)c2)ccc1O [PD6]
half-life at 400 µM ([4]; tissue homogenate, microglia homogenate, read-out: Estimated half-life of bioconversion): > 9 h | half-life at 400 µM ([5]; astrocytes homogenate, read-out: Estimated half-life of bioconversion): > 9 h | Intact prodrug detected after 5 h ([6]; brain S9 subcellular fraction): 70%
